Patent US9913849B2, “Treatment of migraines” (Manistee Partners LLC, priority 2014, dated 2018)
Read-outs that look alike come from different tables or passages of the source.

Experiments:
[1] = cited from earlier work
[2] = cited from earlier work; remark: listed apart in the source
[3] = one drop 0.0015% solution once daily into each eye, cited from earlier work
[4] = cited from earlier work; remark: listed apart in the source
[5] = test system: subject with a history of migraine headaches; experiment: Migraine case reports, topical administration to the eye(s); type: in vivo, human; conditions: Example 1: person, 0.0004% single drop in both eyes once per day in the evening, 30 days
Protocol: A subject was treated with ocular administration of travoprost 0.0004% once per day as a single drop in both eyes in the evening. The subject reported that they had no migraines after being on therapy for 30 days.
A person with a fifteen year history of severe migraine headaches refractory to multiple therapies, started treatment with TRAVATAN Z® (travoprost ophthalmic solution) administered topically to one eye daily.
A person with a history of migraine headaches (one per week) was started on daily topical administration of the prostaglandin, XALATAN® (latanoprost ophthalmic solution), to both eyes daily.

[6] = blood, days 7 and 14, 0.03% once daily to both eyes

For O=C(O)CCC/C=C\C[C@@H]1[C@@H](/C=C/[C@@H](O)COc2cccc(C(F)(F)F)c2)[C@H](O)C[C@@H]1O [travoprost free acid], the “mean plasma Cmax” value ([1]; individuals with quantifiable plasma concentrations (N=38)) is listed as 0.018 ± 0.007 ng/mL and the “plasma concentrations of the free acid (below quantitation limit of the assay)” value ([1]; single drop daily in both eyes, in two-thirds of the subjects) is listed as “below 0.01 ng/ml”.
For CCNC(=O)CCC/C=C\C[C@@H]1[C@@H](/C=C/[C@@H](O)CCc2ccccc2)[C@H](O)C[C@@H]1O [Bimatoprost, (Z)-7-[(1R,2R,3R,5S)-3,5Dihydroxy-2-[(1E,3S)-3-hydroxy-5-phenyl-1-pentenyl]cyclopentyl]-5-N-ethylheptenamide], the “mean AUCO-24 hr” value [2, 6] is given as ~0.09 ng·h/mL, the “mean Cmax” value [2, 6] is given as “approximately 0.08 ng/mL” and the “distribution in human blood” value ([2]; human blood) is given as “resides mainly in the plasma”. For the same molecule, the “steady-state volume of distribution” value ([2]; human, in vivo) was 0.67 L/kg, the “blood concentration (below lower limit of detection)” value ([2]; in most subjects within 1.5 hours after dosing, 0.03% once daily to both eyes) was < 0.025 ng/mL and the “time at which blood concentrations peaked after dosing” value ([2]; one drop 0.03% once daily to both eyes, 15 healthy subjects, two weeks) was ≤ 10 min.
In the case of O=C(O)CCC/C=C\C[C@@H]1[C@@H](/C=C/C(F)(F)COc2ccccc2)[C@H](O)C[C@@H]1O [tafluprost acid], the “mean plasma AUC estimate of tafluprost acid” value ([3]; Day 1) is given as 394 pg·min/mL, the “mean plasma Cmax of tafluprost acid” value ([3]; Day 1) is given as 0.026 ng/mL and the “mean plasma AUC estimate of tafluprost acid” value ([3]; Day 8) is given as 432 pg·min/mL. For the same molecule, the “mean plasma Cmax of tafluprost acid” value ([3]; Day 8) was 0.027 ng/mL and the “median time at which plasma concentrations of tafluprost acid peaked” value ([3]; healthy volunteers, both Days 1 and 8) was 10 min.
For O=C(O)CCC/C=C\C[C@@H]1[C@@H](CC[C@@H](O)CCc2ccccc2)[C@H](O)C[C@@H]1O [acid of latanoprost], the “time during which the acid can be measured in aqueous humor” value ([4]; after local administration) is given as ≤ 4 h and the “time during which the acid can be measured in plasma” value ([4]; after local administration) is given as “only during the first hour”.
In the case of CC(C)OC(=O)CCC/C=C\C[C@@H]1[C@@H](CC[C@@H](O)CCc2ccccc2)[C@H](O)C[C@@H]1O [Latanoprost, isopropyl-(Z)7[(1R,2R,3R,5S)3,5-dihydroxy-2-[(3R)-3-hydroxy-5-phenylpentyl]cyclopentyl]-5-heptenoate, reference compound], the distribution volume ([4]; in humans) is listed as 0.16 ± 0.02 L/kg.
In the case of CC(C)OC(=O)CCC/C=C\C[C@@H]1[C@@H](/C=C/[C@@H](O)COc2cccc(C(F)(F)F)c2)[C@H](O)C[C@@H]1O (relative stereo) [travoprost, [1R-[1α(Z),2β(1E,3R*),3α, 5α]]-7-[3,5-Dihydroxy-2-[3-hydroxy-4-[3-(trifluoromethyl)phenoxy]-1-butenyl]cyclopentyl]-5-heptenoic acid, 1-methylethylester], the “migraines reported on therapy” value [5] is reported as “no migraines”.
